Source: patent US20160281089A1, “PREVENTION OF VIRAL INFECTIVITY” (priority 2005, published 2016)

Tests used:
SFFV = assay: Early i.v. therapy 2, 6 and 10 hours after SFFV infection of mice; assay type: in vivo; conditions: i.v. treatment 2, 6 and 10 hours after infection; for establishment of SFFV infection (PCR of blood samples): whole period tested
Protocol: In another experimental setting we assessed the effect of an i.v. therapy early after infection. We infected mice with SFFV and treated them 2, 6, and 10 hours later with ODN M, asPPT or PBS.
c. Mice infected with SFFV (4×10^2 FFU) i.v. received triple-treatments with ODNs at 2, 6 and 10 hours post-infection. Real-time RT-PCR analysis (graph) and RT-PCR (gel analysis) was performed with RNA from plasma beginning at day 5 and at the days indicated.

HIV virions [1] = assay: Infectivity of ODN-pre-incubated HIV virions in C81-66/45 cells; assay type: cell-based
Protocol: As a next step we investigated the antiviral effect of ODNs by testing the infectivity of treated virions in cell culture studies. We used ODN A, ODN T, as PPT and ODN CO. 2×10^5 C81-66/45 cells were infected with virions pre-incubated with different ODNs at 0.01 MOI for 1, 2 or 4 hours prior to infection. RNA was extracted from infected cells and HIV replication was analysed by real-time PCR 3 days post-infection.
To test the specificity of suppression of viral replication, the effect of ODN A on the infectivity of virions was compared with control ODNs. Virions were pre-treated with the ODNs and HIV replication in infected cells was analysed by real-time PCR, 5 days (FIG. 6A) or 20 days post-infection (FIG. 6B) and by measuring p24 production in the supernatant of the infected cells (FIG. 6C).
(A) HIV virions were incubated with 0.5 μM of ODNs for 1, 2 or 4 hours. C81-66/45 cells were infected with pre-incubated virions, at 0.01 MOI. RNA was extracted from infected cells and HIV replication was analysed by real-time PCR, 3 days post-infection (p.i.).
(B) The same experiment as in (A) was performed with ODN T, ODN CO, asPPT and ODN A pre-treated virions.
(D) C81-66145 cells were infected with virions pre-incubated with 0.5 or 5 μM of ODNs for 4 h, at an MOI of 1. RNA was extracted from infected cells and HIV replication was analysed by real-time PCR, 3 days post-infection.
(E) C81-66/45 cells were infected with virions pre-incubated with ODN A and ODN Sc for 4 h, at an MOI of 0.01. RNA was extracted from infected cells and HIV replication was analysed by real-time PCR, 1 h and 24 h post-infection. (F) The same experiment as in (E) was performed except for using ODN T, ODN B and ODN A, 1 hour post-infection.
C81-66/45 cells were infected with virions pre-incubated with ODN A, ODN T, ODN CO or as PPT for 4 h, at MOI of 0.01. RNA was extracted from infected cells and HIV replication was analysed by real-time PCR, 5 days p.i. (A), and 20 days p.i. (B); by measuring p24 production in the medium of the infected cells (C) or by RT-PCR, 11 days p.i. (D).

HIV virions [2] = assay: ODN-mediated cleavage of viral RNA in intact HIV virions (real-time PCR, RT-PCR, agarose gel); assay type: biochemical; conditions: 0.5 μM ODN, 6 hours; for amount of undigested viral RNA (real-time PCR, primers covering PPT region): intact HIV virions, RPMI medium
RT/RNaseH = RT/RNaseH (Human immunodeficiency virus type 1 group M subtype B, UniProt P04585); assay: Primer extension assay on synthetic RNA2; assay type: biochemical, HIV-1; parameters: the HIV RT/RNase H is a heterodimer of p66 and p51 with and without RNase H; conditions: synthetic RNA2, FIG. 2B
Text: To test whether an ODN-mediated activity would preferentially occur at the PPT, we analysed ODNs targeted to the extended PPT (ODN A) or to a region outside of the PPT (ODN CO and an external antisense oligodeoxynucleotide asEXT) in vitro. We used RNA2, which contains the PPT and the binding sites for ODN A, asEXT and ODN CO. […] Indeed, in the reaction mixture containing both ODN A and asEXT primers, extension products, predominantly synthesized by the RT/RNaseH, started with ODN A and not asEXT (FIG. 2B). […] Thus, the ability of the ODN A to mediate RT/RNaseH-dependent cleavage of the viral RNA is PPT-dependent.
(A) Cleavage assay. 10 nM of in vitro transcribed 5′-labeled RNA was hybridized with 10, 100 and 1000 nM of ODN A and incubated in the presence of RT/RNaseH. The cleavage products were analyzed by denaturing PAGE as described in Materials and methods. (B). Primer extension assay. Synthetic RNA2 was hybridized with ODN A, antisense primer (asEXT) or both primers combined, and the primer extension was performed as described in Materials and Methods. Elongation products were analysed by 8 M urea/10% PAGE. (C) Cleavage assay. RNA/ODN hybrids, obtained using 10 nM of RNA2 and 10 nM of ODN A, asPPT or ODN CO were incubated with RT/RNaseH and cleavage products were analyzed by denaturing PAGE as described in Materials and methods. […]

[3] = virions pre-incubated 4 hours with 0.5 μM ODN, 0.01 MOI, 3 days post-infection

For “CCCTTCCAGTCCCCCCTTTTCTTTT (chemistry not given here) [asPPT, single-stranded antisense PPT of HIV, lacks the passenger strand and the linker]”, the “health of infected mice (spleen enlargement in mock-treated)” value (SFFV) was “healthy”, the “establishment of SFFV infection (PCR of blood samples)” value (SFFV) was “prevented the establishment of the SFFV-infection” and the “HIV replication in infected cells (real-time PCR)” value (“HIV replication in infected cells” for short) (HIV virions [1]; [3]) was “low but detectable levels”. The “amount of undigested viral RNA (real-time PCR, primers covering PPT region)” value (HIV virions [2]) was “less efficient cleavage of the viral RNA”.

For “TCTTTTTGGGGGGTTTGTTTGTTTTTTCTTTCATTCCCCCCTTTTTCT (chemistry not given here) [ODN M, 22-mer antisense and 22-mer second strand connected by T4, targeted to extended PPT of SFFV]”, the “health of infected mice (spleen enlargement in mock-treated)” value (SFFV) was “healthy” and the “establishment of SFFV infection (PCR of blood samples)” value (SFFV) was “prevented the establishment of the SFFV-infection”.

For “TTTTCTTTTGGGGGGTTTGGTTGGGTTTTCCCTTCCAGTCCCCCCTTTTCTTTT (phosphorothioate linkages, further chemistry not given here) [ODN A, 25 mer antisense and 25 mer passenger strand connected by T4, phosphorothioated at each end and in linker, targeted to extended PPT of HIV-1]”, the “primer extension by RT/RNaseH compared to asEXT” value (RT/RNaseH) was “more efficiently”, the “HIV replication in infected cells” value (HIV virions [1]; ODN-pre-treated virions, MOI of 1, 3 days post-infection) was “only partial suppression of HIV replication” and the “binding/uptake of pre-treated virions by host cells” value (HIV virions [1]; pre-incubation 4 hours, HIV RNA in infected cells 1 hour post-infection) was “did not significantly interfere with binding”. For the same sequence, the “time without sign of virus replication after infection” value (HIV virions [1]; virions pre-incubated 4 h, MOI of 0.01, real-time PCR, p24, RT-PCR, syncytia) was “at least 20 days”, the “HIV replication in infected cells” value (HIV virions [1]; [3]) was “complete suppression of viral replication” and the “viral RNA in infected cells” value (HIV virions [1]; virions pre-treated 4 h, 24 hours after infection) was “completely degraded”. For the same sequence, the “virion uptake by cells, less efficient compared to ODN Sc-treated virions” value (HIV virions [1]; virions pre-treated 4 hours, HIV RNA in infected cells 1 hour post-infection) was 14%, the “cDNA production in virions (PCR with ODN A- and viral cDNA-specific primers)” value (HIV virions [2]; virions containing monodeoxynucleotides) was “led to cDNA production starting with ODN A” and the “amount of undigested viral RNA (real-time PCR, primers covering PPT region)” value (HIV virions [2]) was “significant decrease in the amount of amplification product”. The “total viral RNA by agarose gel electrophoresis” value (HIV virions [2]; intact virions, compared to control ODNs) was “significant reduction of the viral RNA”.
